Results on three compounds are retold here after patent US5352704A, “Guanidinobenzene derivatives” (priority 1989, dated 1994).

The test system of series [1] is human influenza virus A/WSN. Briefly: Inhibitory action on plaque formation by human influenza virus. The format is cell-based, human influenza virus A/WSN (in MDCK dog kidney cells). The settings on record: unidentified influenza virus, MDCK, 72 h, read-out: Inhibition ratio (%) of plaque formation.
The test system of series [2] is influenza virus A/Udron/72 (H3N2). The format is in vivo, mole hamster. The conditions noted are these: 10.0 mg/ml, 50 μl intranasal at 6, 11 and 24 hours after infection, 28 hours from infection, n = 5.
For series [3] the following is noted: related art (Virology, Raven Press, pp 323-348, 1985); cited from earlier work.

Molecules are shown by their SMILES.

Regarding `N=C(N)Nc1ccc(C(=O)Nc2ccc(C(=N)N)cc2)cc1` [Compound A, 4-guanidinobenzoic acid 4-amidinobenzamide.2 methanesulfonate], in series [1], the inhibition at 12.5 µg/mL was 2.9%, the inhibition at 25 µg/mL worked out at 51% and the inhibition at 50 µg/mL came out at 80.8%.
On to `N=C(N)Nc1ccc(C(=O)Nc2ccc3cc(C(=N)N)ccc3c2)cc1` [Compound B, 4-guanidinobenzoic acid 6-amidino-2-naphthylamide.2 methanesulfonate], for which the “% Inhibition (virus in lung)” value in series [2] (**P < 0.01, tTest) is reported as 99.0%. For the same compound, the PFU/lung in series [2] (control 4.8 ± 2.2 × 10^5) is on record as 5.0 ± 10.0 × 10^3 PFU/lung. Besides, in series [1], the inhibition at 10 µg/mL was 31.4%, the inhibition at 20 µg/mL was found to be 67.6% and the inhibition at 50 µg/mL turned out to be 82.4%.
For `NC12CC3CC(CC(C3)C1)C2` [amantadine], in series [3], the “efficacy on frequent use” value is listed as “the higher the frequency of use, the lower becomes efficacy” and the side effects entry was “teratogenicity”.
